{
  "source": "ChEMBL document CHEMBL4321794",
  "about": "“Discovery and Optimization of 2-Arylquinazolin-4-ones into a Potent and Selective Tankyrase Inhibitor Modulating Wnt Pathway Activity” (J Med Chem, 2019)",
  "key": {"[1]": {"assay": "Clearance in mouse", "type": "ADME, organism-based", "conditions": "in vivo"}, "[2]": {"system": "Mus musculus", "assay": "Ex vivo inhibition of tankyrase 1/2 in human DLD1 cells xenografted in immunodeficient athymic nude mouse assessed as increase in tankyrase level in tumor lysates at 10 mg/kg, po administered via gavage by luminex based bead assay", "type": "functional, organism-based", "conditions": "Neoplasm, Lysate, TDE = time-dependent effect"}, "[3]": {"assay": "Time at which free-drug concentration exceeds in vitro cellular EC50 for inhibition of tankyrase 1/2 in human DLD1 cells assessed as increase in axin2 accumulation in mouse xenografted with human DLD1 at 10 mg/kg, po administered via gavage", "type": "organism-based", "conditions": "in vivo"}, "[4]": {"target": "T1, Protein mono-ADP-ribosyltransferase PARP3 (Homo sapiens, UniProt Q9Y6F1)", "T1 sequence (Q9Y6F1 whole entry)": "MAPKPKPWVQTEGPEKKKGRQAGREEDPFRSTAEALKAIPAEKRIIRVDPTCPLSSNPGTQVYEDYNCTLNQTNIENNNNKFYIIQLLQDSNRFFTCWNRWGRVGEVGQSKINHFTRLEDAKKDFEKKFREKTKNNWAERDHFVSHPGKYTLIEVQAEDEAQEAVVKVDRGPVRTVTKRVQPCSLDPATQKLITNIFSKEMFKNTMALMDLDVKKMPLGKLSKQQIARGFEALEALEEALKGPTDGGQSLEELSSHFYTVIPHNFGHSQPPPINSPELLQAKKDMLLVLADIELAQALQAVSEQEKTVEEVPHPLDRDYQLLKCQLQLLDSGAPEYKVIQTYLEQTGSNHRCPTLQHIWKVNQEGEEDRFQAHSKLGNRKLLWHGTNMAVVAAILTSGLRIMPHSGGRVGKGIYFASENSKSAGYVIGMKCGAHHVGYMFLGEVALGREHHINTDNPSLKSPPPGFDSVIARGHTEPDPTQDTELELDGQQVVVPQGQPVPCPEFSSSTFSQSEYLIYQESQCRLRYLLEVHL", "assay": "Inhibition of N-terminal GST-tagged recombinant full length human PARP3 expressed in Baculovirus infected Sf9 cells using biotinylated substrate after 1 hr by chemiluminescence method"}, "[5]": {"assay": "Intrinsic clearance in mouse liver microsomes assessed per mg protein in presence of NADPH by UPLC analysis", "type": "ADME, Microsome", "conditions": "read-out: CLH"}, "[6]": {"target": "T2, Protein mono-ADP-ribosyltransferase PARP10 (Homo sapiens, UniProt Q53GL7)", "T2 sequence (Q53GL7 whole entry)": "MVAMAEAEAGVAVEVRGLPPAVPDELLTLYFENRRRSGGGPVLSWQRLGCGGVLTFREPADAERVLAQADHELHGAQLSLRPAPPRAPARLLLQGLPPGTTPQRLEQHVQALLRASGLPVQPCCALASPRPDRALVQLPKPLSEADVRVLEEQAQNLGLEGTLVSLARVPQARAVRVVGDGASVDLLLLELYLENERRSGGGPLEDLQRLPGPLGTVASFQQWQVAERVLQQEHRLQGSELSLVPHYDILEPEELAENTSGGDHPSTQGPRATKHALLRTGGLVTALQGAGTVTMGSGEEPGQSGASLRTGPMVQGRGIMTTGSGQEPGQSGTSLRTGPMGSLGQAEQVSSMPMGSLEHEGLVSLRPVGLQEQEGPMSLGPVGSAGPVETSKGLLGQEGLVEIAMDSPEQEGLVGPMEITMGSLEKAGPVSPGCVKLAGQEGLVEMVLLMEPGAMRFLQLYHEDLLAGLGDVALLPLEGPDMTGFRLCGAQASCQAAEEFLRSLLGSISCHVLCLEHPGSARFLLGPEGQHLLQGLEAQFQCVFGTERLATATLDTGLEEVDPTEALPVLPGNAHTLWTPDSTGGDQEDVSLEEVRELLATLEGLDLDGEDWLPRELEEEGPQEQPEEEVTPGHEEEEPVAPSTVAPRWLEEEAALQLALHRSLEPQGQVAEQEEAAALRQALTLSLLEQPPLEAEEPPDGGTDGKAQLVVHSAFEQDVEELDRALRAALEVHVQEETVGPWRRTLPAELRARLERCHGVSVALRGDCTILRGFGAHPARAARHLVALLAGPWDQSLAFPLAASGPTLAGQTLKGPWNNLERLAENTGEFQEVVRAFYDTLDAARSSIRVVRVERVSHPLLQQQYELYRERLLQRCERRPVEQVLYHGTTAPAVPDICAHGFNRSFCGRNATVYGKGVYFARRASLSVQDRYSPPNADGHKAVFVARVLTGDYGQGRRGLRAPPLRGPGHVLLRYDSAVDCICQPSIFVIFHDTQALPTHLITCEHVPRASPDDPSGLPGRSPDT", "assay": "Inhibition of human N-terminal FLAG-tagged/C-terminal Strep-tagged PARP10 (805 to 1025 residues) expressed in baculovirus infected Sf9 insect cells using biotinylated substrate by chemiluminescence method"}},
  "data": [
    {"compound": "CC(C)(O)c1ccc(-c2nc3c(F)cc(F)cc3c(=O)[nH]2)cc1", "values": [
      {"measurement": "clearance", "setting": "[1]", "value": 6.83, "unit": "mL/min/kg"},
      {"measurement": "inhibition", "setting": "[2]", "value": "Tde"},
      {"measurement": "T>fEC50", "setting": "[3]", "value": ">= 12 hr"},
      {"measurement": "IC50", "setting": "[4]", "value": 1900, "unit": "nM"},
      {"measurement": "microsomal CLint", "setting": "[5]", "value": 22, "unit": "µL/min/mg"},
      {"measurement": "IC50", "setting": "[6]", "value": "> 10000", "unit": "nM"}
    ]}
  ]
}
